In patent publication US9937145B2, “Sulfamate derivative compound for use in preventing or treating epilepsy” (Bio-Pharm Solutions Co., Ltd., priority 2013, dated 2018):
Like-named read-outs stand apart in the source and are kept apart here. Marks after values point to notes of the source that are not given here.

Assays:
male ICR mice = experiment: MES test (anti-epilepsy activity), mice, oral (mMES po); type: in vivo; settings: Mus musculus; for responders at 50 mg/kg: injection amount 50 mg/kg; for ED50: mice, at peak time; for responders at 80 mg/kg: injection amount 80 mg/kg; for responders at 100 mg/kg: injection amount 100 mg/kg
Protocol: (§1) Biological Experimental Example. 1: Measurement of Anti-Epilepsy Activity (MES-Test)
(§2) In the MES test (Ref., G. Villetti et al. Neuropharmacology 40(2001) 866-878), an electrical stimulus (mice: 50 mA, 60 Hz, 0.2 sec, and rats: 150 mA, 60 Hz, 0.2 sec in the test animal) supplied by an 11 A Shocker (IITC Life Science Company) was delivered through corneal electrodes. All mice or rats assigned to any electroshock at peak time were treated with each test compound sample which was dissolved in 20% tween 80 prepared by saline solvent applied orally before the test. […] Three doses of the test sample were administered orally to 9-18 animals (3-6 mice per dose) for evaluating the respective doses at which 50% of the animals were protected from seizure (ED50). The ED50 value (median effective close) was calculated by Litchfield and Wicoxon log-probit method which is a dose-response relationship. Experimental animals, male ICR mice and male SD rats, were purchased from OrientBio, Samtako, or Nara Biotech, Korea, and housed in cages (4-5 mice or 3 rats per cage) for 4-5 days. The range of mice body weight was between 19 and 25 grams and range of rats body weight was between 100 and 130 grams.
(§3) The obtained results are shown as mean±sem. The difference between the groups was statistically analyzed by ANOVA, and then further examined by Dunnett's test or Bonferroni test. If p is less than 0.05, it was determined that the difference between the groups had statistical significance.
(§4) The results of anti-epileptic activity of the sulfamate derivative compounds measured in the above Experimental Example are shown in the following Tables 4 and 5.

male SD rats = experiment: MES test (anti-epilepsy activity), rats, oral (rMES po); type: in vivo; settings: for ED50: Rattus norvegicus, rats, at peak time; for rMES(po) Protection %: 3 rats
Protocol: as §1, §2, §3, §4

[1] = 3 mice, read-out: mMES(po) Protection %

| SMILES | ED50 (male SD rats) [mg/kg] | responders at 100 mg/kg (male ICR mice; [1]) [%] | also measured |
| --- | --- | --- | --- |
| CC1(C)OC(COS(N)(=O)=O)C(c2ccccc2Cl)O1 (mixture of isomers) [Example 4, (5-(2-chlorophenyl)-2,2-dimethyl-1,3-dioxolan-4-yl)methyl sulfamate(SR & RS mixture)] | 5.2 | – | responders at 50 mg/kg (male ICR mice; [1]): 33% |
| CC1(C)O[C@@H](COS(N)(=O)=O)[C@H](c2ccccc2F)O1 [Example 16, ((4S, 5S)-5-(2-fluorophenyl)-2,2-dimethyl-1,3-dioxolan-4-yl)methyl sulfamate] | 7.7 | – | responders at 50 mg/kg (male ICR mice; [1]): 100% |
| CC1(C)O[C@@H](COS(=O)(=O)[NH][Na])[C@H](c2ccccc2N)O1 [Example 66] | 11.8 | – | ED50 (male ICR mice): 12.3 mg/kg |
| Nc1ccccc1[C@@H]1OC2(CCCC2)O[C@H]1COS(N)(=O)=O [Example 72, ((2S, 3S)-3-(2-aminophenyl)-1,4-dioxaspiro[4,4]nonan-2-yl)methyl sulfamate] | 1 | – | ED50 (male ICR mice): 14.2 mg/kg |
| NS(=O)(=O)OC[C@@H]1OC(=O)O[C@H]1c1ccccc1[N+](=O)[O-] [Example 90, ((4S, 5S)-5-(2-nitrophenyl)-2-oxo-1,3-dioxolan-4-yl)methyl sulfamate] | 1.1 | – | ED50 (male ICR mice): 9.2 mg/kg |
| CC1(C)O[C@@H](CCOS(N)(=O)=O)[C@H](c2ccccc2Cl)O1 [Example 154, 2-((4S, 5S)-5-(2-chlorophenyl)-2,2-dimethyl-1,3-dioxolan-4-yl)ethyl sulfamate] | – | – | responders at 50 mg/kg (male ICR mice; [1]): 100% |
| CCC1(CC)O[C@@H](CCOS(N)(=O)=O)[C@H](c2ccccc2Cl)O1 [Example 156, 2-((4S, 5S)-5-(2-chlorophenyl)-2,2-diethyl-1,3-dioxolan-4-yl)ethyl sulfamate] | – | – | responders at 80 mg/kg (male ICR mice; [1]): 100% |
| NS(=O)(=O)OCC[C@@H]1OC2(CCCC2)O[C@H]1c1ccccc1Cl [Example 158, 2-((2S, 3S)-3-(2-chlorophenyl)-1,4-dioxaspiro[4,4]nonan-2-yl)ethyl sulfamate] | – | – | responders at 50 mg/kg (male ICR mice; [1]): 100% |
| NS(=O)(=O)OCC[C@@H]1OC2(CCCCC2)O[C@H]1c1ccccc1Cl [Example 160, 2-((2S, 3S)-3-(2-chlorophenyl)-1,4-dioxaspiro[4,5]decan-2-yl)ethyl sulfamate] | – | – | responders at 80 mg/kg (male ICR mice; [1]): 66.6% |
| CC1(C)O[C@H](COS(N)(=O)=O)[C@H](c2ccccc2Cl)O1 [Example 161, ((4R, 5S)-5-(2-chlorophenyl)-2,2-dimethyl-1,3-dioxolan-4-yl)methyl sulfamate] | – | 100 | – |
| CC1(C)O[C@@H](COS(N)(=O)=O)[C@@H](c2ccccc2Cl)O1 [Example 162, ((4S, 5R)-5-(2-chlorophenyl)-2,2-dimethyl-1,3-dioxolan-4-yl)methyl sulfamate] | – | 100 | – |
| CC1(C)O[C@H](c2sc(Cl)nc2Cl)[C@@H](COS(N)(=O)=O)O1 [Example 163, ((4R, 5S)-5-(2,4-dichlorothiazol-5-yl)-2,2-dimethyl-1,3-dioxolan-4-yl)methyl sulfamate] | 6.5 | – | responders at 50 mg/kg (male ICR mice; 4 mice, read-out: mMES(po) Protection %): 50% |
| CC1(C)O[C@@H](COS(N)(=O)=O)[C@H](c2sc(Cl)nc2Cl)O1 [Example 164, ((4S, 5R)-5-(2,4-dichlorothiazol-5-yl)-2,2-dimethyl-1,3-dioxolan-4-yl)methyl sulfamate] | 13.2 | – | responders at 50 mg/kg (male ICR mice; [1]): 100% |
| CC1(C)O[C@H](c2cnc(Cl)s2)[C@@H](COS(N)(=O)=O)O1 [Example 165, ((4R, 5S)-5-(2-chlorothiazol-5-yl)-2,2-dimethyl-1,3-dioxolan-4-yl)methylsulfamate] | – | 100 | – |
| CC1(C)O[C@@H](COS(N)(=O)=O)[C@H](c2cnc(Cl)s2)O1 [Example 166, ((4R, 5S)-5-(2-chlorothiazol-5-yl)-2,2-dimethyl-1,3-dioxolan-4-yl)methylsulfamate] | 1.9 | 100 | – |
| Cc1ncsc1[C@@H]1OC(C)(C)O[C@H]1COS(N)(=O)=O [Example 168, ((4S, 5R)-2,2-dimethyl-5-(4-methylthiazol-5-yl)-1,3-dioxolan-4-yl)methylsulfamate] | 4.9 | 100 | – |
| Cc1nc(Cl)sc1[C@H]1OC(C)(C)O[C@@H]1COS(N)(=O)=O [Example 169, ((4R, 5S)-2,2-dimethyl-5-(2-chloro-4-methylthiazol-5-yl)-1,3-dioxolan-4-yl)methylsulfamate] | – | – | responders at 30 mg/kg (male ICR mice; injection amount 30 mg/kg, 3 mice, read-out: mMES(po) Protection %): 100%; rMES(po) Protection % (male SD rats; injection amount 15 mg/kg): 15^a (100%) |
| Cc1nc(Cl)sc1[C@@H]1OC(C)(C)O[C@H]1COS(N)(=O)=O [Example 170, ((4S, 5R)-2,2-dimethyl-5-(2-chloro-4-methylthiazol-5-yl)-1,3-dioxolan-4-yl)methylsulfamate] | – | 100 | – |
| CC1(C)O[C@@H](COS(N)(=O)=O)[C@H](c2ccsc2)O1 [Example 171, ((4S, 5S)-2,2-dimethyl-5-(thiophen-3-yl)-1,3-dioxolan-4-yl)methylsulfamate] | – | – | ED50 (male ICR mice): 43.3 mg/kg |
| CC1(C)O[C@@H](COS(N)(=O)=O)[C@H](c2ccc(Cl)s2)O1 [Example 172, ((4S, 5R)-2,2-dimethyl-5-(5-chlorothiophen-2-yl)-1,3-dioxolan-4-yl)methylsulfamate] | 4.7 | – | ED50 (male ICR mice): 30.2 mg/kg |
| CC1(C)OC(COS(N)(=O)=O)C(c2ccncc2Cl)O1 (stereo not drawn) [Example 173, (5-(3-chloropyridin-4-yl)-2,2-dimethyl-1,3-dioxolan-4-yl)methylsulfamate] | – | 100 | – |
| CC1(C)OC(COS(N)(=O)=O)C(c2cnccc2Cl)O1 (stereo not drawn) [Example 174, (5-(4-chloropyridin-3-yl)-2,2-dimethyl-1,3-dioxolan-4-yl)methylsulfamate] | – | 100 | – |
| CC1(C)OC(COS(N)(=O)=O)C(c2cncnc2)O1 (stereo not drawn) [Example 175] | – | 100 | – |
| CC1(C)OC(COS(N)(=O)=O)C(c2cnc(Cl)nc2)O1 (stereo not drawn) [Example 176, (2,2-dimethyl-5-(2-chloropyrimidin-5-yl)-1,3-dioxolan-4-yl)methylsulfamate] | – | 100 | – |
| CC1(C)O[C@@H](COS([NH-])(=O)=O)[C@H](c2ccccc2Cl)O1.[Na+] [Example 177, sodium ((((4S,5S)-5-(2-chlorophenyl)-2,2-dimethyl-1,3-dioxolan-4-yl)methoxy)sulfonyl)amide] | – | – | rMES(po) Protection % (male SD rats; injection amount 3.5 mg/kg): 3.5^a (100%) |
